Patent US7750158B2, “Cannabinoid receptor ligands” (Schering Corporation, priority 2004, dated 2010)
Like-named read-outs stand apart in the source and are kept apart here.

Columns and labels:
[1] = biological target: T1, recombinant human cannabinoid CB2 receptor (Homo sapiens, UniProt P34972); experiment: [3H] CP-55,940 competition binding to recombinant cannabinoid receptor membranes (CB2)
T1 construct: purchased Receptor Biology RB-HCB2
Procedure: (§1) Potential cannabinoid receptor ligands were screened for the ability to compete with [^3H] CP-55,940, which is a known receptor ligand, for binding to recombinant cannabinoid receptors. Test compounds were serially diluted in Diluent Buffer (50 mM Tris pH 7.1, 1 mM EDTA, 3 mM MgCl2, 0.1% BSA, 10% DMSO, 0.36% methyl cellulose (Sigma M-6385)) from stocks prepared in 100% DMSO. Aliquots (10 μL) were transferred into 96-well microtiter plates. Membrane preparations of recombinant human cannabinoid CB2 receptor (Receptor Biology #RB-HCB2) or recombinant human cannabinoid CB1 receptor (Receptor Biology #RB-HCB1) were diluted to 0.3 mg/mL in Binding Buffer (50 mM Tris pH 7.2, 1 mM EDTA, 3 mM MgCl2, 0.1% BSA). Aliquots (50 μL) were added to each well of the microtiter plate. The binding reactions were initiated by addition of [^3H] CP-55,940 (New England Nuclear #NET 1051; specific activity=180 Ci/mmol) to each well of the microtiter plate. Each 100 μl reaction mixture contained 0.48 nM [^3H] CP-55,940, 15 μg membrane protein in binding buffer containing 1% DMSO and 0.036% methyl cellulose. Following incubation for 2 hours at room temperature, the reactions were filtered through 0.5% polyethylenimine-coated GF/C filter plates (UniFilter-96, Packard) with a TomTec Mark 3U Harvester (Hamden, Conn.). The filter plate was washed 5 times with binding buffer, rotated 180°, then re-washed 5 times with binding buffer. Bound radioactivity was quantitated following addition of 30 μl of Packard Microscint 20 scintillant in a Packard TopCount NXT microplate scintillation counter. Non-linear regression analysis of the resulting data was performed using Prism 2.0b (GraphPad, San Diego, Calif.).
The activities (potencies) for the compounds of the invention are determined by measuring their Ki values.

[2] = biological target: T2, recombinant human cannabinoid CB1 receptor (Homo sapiens, UniProt P21554); experiment: [3H] CP-55,940 competition binding to recombinant cannabinoid receptor membranes (CB1), reported as the CB1/CB2 selection ratio; conditions: Ki CB1 / Ki CB2, same binding assay
T2 construct: purchased Receptor Biology RB-HCB1
T2 sequence (P21554 whole entry): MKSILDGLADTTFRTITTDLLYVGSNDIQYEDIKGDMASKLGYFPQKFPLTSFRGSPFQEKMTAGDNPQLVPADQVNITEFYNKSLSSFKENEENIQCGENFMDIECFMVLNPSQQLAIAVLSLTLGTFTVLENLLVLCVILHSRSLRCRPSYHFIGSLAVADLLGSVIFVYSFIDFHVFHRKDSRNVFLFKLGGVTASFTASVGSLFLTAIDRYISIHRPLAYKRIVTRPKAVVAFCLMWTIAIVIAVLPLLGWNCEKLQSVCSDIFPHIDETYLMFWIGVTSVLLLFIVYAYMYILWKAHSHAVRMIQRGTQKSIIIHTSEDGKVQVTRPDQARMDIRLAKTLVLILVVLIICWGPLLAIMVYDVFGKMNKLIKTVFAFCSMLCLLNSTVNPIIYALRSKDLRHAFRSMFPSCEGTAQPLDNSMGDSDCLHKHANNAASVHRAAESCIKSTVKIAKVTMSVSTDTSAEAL
Procedure: as §1

[3] = 0.48 nM [3H] CP-55,940, 15 μg membrane protein, 2 hours at room temperature, read-out: Ki values (CB2 receptor)

T1 sequence (P34972 whole entry): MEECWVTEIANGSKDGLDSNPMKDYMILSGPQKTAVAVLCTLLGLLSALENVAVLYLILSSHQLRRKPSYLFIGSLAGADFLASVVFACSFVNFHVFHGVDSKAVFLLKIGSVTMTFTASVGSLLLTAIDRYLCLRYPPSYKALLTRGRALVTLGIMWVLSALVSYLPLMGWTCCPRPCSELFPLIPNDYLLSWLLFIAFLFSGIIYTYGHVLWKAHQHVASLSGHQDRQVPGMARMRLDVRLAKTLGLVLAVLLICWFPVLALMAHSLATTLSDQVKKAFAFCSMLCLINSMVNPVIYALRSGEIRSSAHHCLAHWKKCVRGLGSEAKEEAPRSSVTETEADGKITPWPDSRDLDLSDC

Q: With `CS(=O)(=O)NC1CC12CCN(S(=O)(=O)c1cc3ccccc3n1S(=O)(=O)c1ccccc1F)CC2` (racemic) [compound 20] as the compound, how does the Ki [1, 3] read?
A: 0.24 nM

Q: What about the “selection ratio of the Ki value of the CB1 receptor to that of the CB2 receptor” value (“selection ratio” for short) [2] of the same compound?
A: about 15000

Q: `O=S(=O)(c1ccccn1)c1cc(Cl)ccc1S(=O)(=O)N1CC2C(CNS(=O)(=O)C(F)(F)F)C2C1` (stereo not shown) [compound 6] was tested. Which Ki [1, 3] did it give?
A: 1.5 nM

Q: And the “selection ratio” value [2]?
A: ~6300

Q: What does the source list for `CS(=O)(=O)NCC1C2CN(S(=O)(=O)c3ccc(Cl)cc3S(=O)(=O)c3ccccc3F)CC12` (stereo not shown) [compound 9]?
A: Ki [1, 3]: 0.65 nM; selection ratio of the Ki value of the CB1 receptor to that of the CB2 receptor [2]: ~2700

Q: For `O=S(=O)(c1ccccc1F)c1cc(Cl)ccc1S(=O)(=O)N1CC2C(CNS(=O)(=O)C(F)(F)F)C2C1` (stereo not shown) [compound 11], which Ki [1, 3] is on record?
A: 1.46 nM

Q: What about the “selection ratio” value [2] of the same compound?
A: about 1000

Q: How did the Ki [1, 3] turn out when `CS(=O)(=O)NCC1C2CN(S(=O)(=O)c3cc4ccccc4n3S(=O)(=O)c3ccccc3F)CC12` (stereo not shown) [compound 13] was run?
A: 1 nM

Q: And the “selection ratio” value [2]?
A: ~3400

Q: How did the Ki [1, 3] turn out when `O=S(=O)(c1cc2ccccc2n1S(=O)(=O)c1ccccc1F)N1CCC2(CC1)C[C@@H]2NS(=O)(=O)C(F)(F)F` [compound 22] was run?
A: 1 nM

Q: What about the “selection ratio” value [2] of the same compound?
A: ~400

Q: `O=S(=O)(c1ccccn1)c1cc(C(F)(F)F)ccc1S(=O)(=O)N1CCC2(CC1)CC2NS(=O)(=O)C(F)(F)F` (stereo not shown) [compound 31] was tested. Which Ki [1] did it give?
A: 5 nM

Q: What about the “selection ratio” value [2] of the same compound?
A: ~71

Q: How did the Ki [1, 3] turn out when `O=S(=O)(c1cc2ccccc2n1S(=O)(=O)c1ccccn1)N1CCC2(CC1)CC2NS(=O)(=O)C(F)(F)F` (stereo not shown) [compound 41] was run?
A: 0.4 nM

Q: What about the “selection ratio” value [2] of the same compound?
A: ~3500

Q: What does the source list for `CS(=O)(=O)NCC1CC2CCC(C1)N2S(=O)(=O)c1cc2ccccc2n1S(=O)(=O)c1ccccc1F` (stereo not shown) [compound 47]?
A: Ki [1]: 7 nM; selection ratio of the Ki value of the CB1 receptor to that of the CB2 receptor [2]: ~790

Q: With `CCC1(CNCC(F)(F)F)CC2CCC(C1)N2S(=O)(=O)c1ccc(Cl)cc1S(=O)(=O)c1ccccn1` (stereo not shown) [compound 58] as the compound, how does the Ki [1] read?
A: 41 nM

Q: And the “selection ratio” value [2]?
A: ~770

Q: `CCC1(CNS(=O)(=O)C(F)(F)F)CC2CCC(C1)N2S(=O)(=O)c1ccc(Cl)cc1S(=O)(=O)c1ccccn1` (stereo not shown) [compound 59] was tested. Which Ki [1] did it give?
A: 25.9 nM

Q: And the “selection ratio” value [2]?
A: ~52

Q: What does the source list for `O=S(=O)(c1cc2cccnc2n1S(=O)(=O)c1ccccc1F)N1CC2C(CNS(=O)(=O)C(F)(F)F)C2C1` (stereo not shown) [compound 60]?
A: Ki [1, 3]: 3.3 nM; selection ratio of the Ki value of the CB1 receptor to that of the CB2 receptor [2]: ~4100

Q: Which results are given for `Cn1c(S(=O)(=O)N2CCC3(CC2)CC3NS(=O)(=O)C(F)(F)F)c(S(=O)(=O)c2ccccc2F)c2ccccc21` (stereo not shown) [compound 61]?
A: Ki [1]: 3.9 nM; selection ratio of the Ki value of the CB1 receptor to that of the CB2 receptor [2]: ~1200

Q: Which results are given for `CC(C)n1c(S(=O)(=O)N2CC3C(CNC(=O)OC(C)(C)C)C3C2)c(S(=O)(=O)c2ccccc2F)c2ccccc21` (stereo not shown) [compound 62]?
A: Ki [1]: 28 nM; selection ratio of the Ki value of the CB1 receptor to that of the CB2 receptor [2]: ~1.9
